In the PolyMetriX glass transition set:
Counter-ions that a name gives are not always drawn. ± gives the standard deviation of the reports.

`*Oc1ccc(C(C)(C)c2ccc(Oc3ccc(C(=O)c4ccc5cc(C(=O)c6ccc(*)cc6)ccc5c4)cc3)cc2)cc1` (repeat unit) gave a glass transition temperature of 185.00 °C. For `*C(CC)COC(=O)NCCCCCCNC(=O)OCC(CC)n1c(=O)c2cc3c(=O)n(*)c(=O)c3cc2c1=O` (repeat unit), the glass transition temperature was 61.00 °C. In the case of `*/C(C)=C(/*)SCC` (repeat unit), the glass transition temperature is reported as 160.00 °C. Work on `*O[Si](C)(C)O[Si](C)(C)O[Si](C)(C)O[Si](C)(C)c1ccc(Oc2ccc([Si](*)(C)C)cc2)cc1` (repeat unit) yielded a glass transition temperature of -52.00 °C. With `*CC(*)c1ccc(CCCCCCCCC)cc1` (repeat unit) the glass transition temperature was -53.00 °C. With `*CCCOC(=O)CCCCCCC(=O)O*` (repeat unit) the glass transition temperature was -52.50 °C. In the case of `*C(=O)c1ccc2c(c1)C(=O)N(c1ccc(Oc3cc4ccccc4cc3Oc3ccc(N4C(=O)c5ccc(*)cc5C4=O)cc3)cc1)C2=O` (repeat unit), the glass transition temperature is reported as 246.00 °C. `*C[Si](*)(C)CCCOCCOCCOC` (repeat unit) gave a glass transition temperature of -73.30 °C. `*CC(O)COC(=O)CCCCCCCCCCC(=O)OCC(O)COc1ccc(C(C)(C)c2ccc(O*)cc2)cc1` (repeat unit) gave a glass transition temperature of 25.00 °C. `*Oc1ccc(C(C)(C)c2ccc(Oc3cncc(*)n3)cc2)cc1` (repeat unit) showed a glass transition temperature of 145.00 °C. `*Oc1cccc(C(=O)Nc2ccc(S(=O)(=O)c3ccc(NC(=O)c4cccc(Oc5nc(*)nc(Sc6ccccc6)n5)c4)cc3)cc2)c1` (repeat unit) gave a glass transition temperature of 304.00 °C. With `*CCCCCCCCCCOc1ccc(-c2cc(-c3ccccc3)c(-c3ccc(NC(=O)c4ccc(C(=O)Nc5ccc(-c6c(-c7ccccc7)cc(-c7ccc(O*)cc7)cc6-c6ccccc6)cc5)cc4)cc3)c(-c3ccccc3)c2)cc1` (repeat unit) the glass transition temperature was 116.00 °C. Molecule `*O[Si](*)(C)CCCCC(=O)OCCCCCCCCCCC(F)(F)C(F)(F)C(F)(F)C(F)(F)C(F)(F)C(F)(F)C(F)(F)C(F)(F)F` (repeat unit) has a glass transition temperature of -78.00 °C. With `*OC(=O)c1ccc(C(C)(C)c2ccc(C(*)=O)cc2)cc1` (repeat unit) the glass transition temperature was 100.00 °C. Molecule `*CC(*)(C)C(=O)OCCCCOc1ccc2cc(C(=O)Oc3ccccc3)ccc2c1` (repeat unit) has a glass transition temperature of 88.00 °C. Molecule `*c1ccc(-c2cnc3cc(S(=O)(=O)c4ccc5nc(*)cnc5c4)ccc3n2)cc1` (repeat unit) has a glass transition temperature of 342.00 °C. In the case of `*CC(*)c1ccc(Cl)cc1` (repeat unit) [Poly(4-chlorostyrene)], the glass transition temperature is reported as 119.92 ± 5.3 °C. With `*CC(C)(C)CS(=O)(=O)CC(C)(C)COC(=O)O*` (repeat unit) the glass transition temperature was 50.00 °C. `*Oc1cccc(Oc2ccc(C(=O)c3ccc(NC(=O)CCCCCCCCC(=O)Nc4ccc(C(=O)c5ccc(*)cc5)cc4)cc3)cc2)c1` (repeat unit) showed a glass transition temperature of 143.00 °C. `*c1ccc(Oc2ccc(S(=O)(=O)c3ccc(Oc4ccc(-c5c6c(c(*)c7ccccc57)C(=O)N(c5ccc(C(F)(F)F)cc5)C6=O)cc4)cc3)cc2)cc1` (repeat unit) gave a glass transition temperature of 290.00 °C. Work on `*c1ccc(N2C(=O)c3ccc(C(=O)c4ccc5c(c4)C(=O)N(c4ccc(-c6nc7cc(-c8ccc9nc(-c%10ccccc%10)c(*)nc9c8)ccc7nc6-c6ccccc6)cc4)C5=O)cc3C2=O)cc1` (repeat unit) yielded a glass transition temperature of 260.00 °C. `*c1ccc(N2C(=O)c3ccc(Oc4ccc(C(C)(C)c5ccc(Oc6ccc7c(c6)C(=O)N(c6ccc8[nH]c(*)nc8c6)C7=O)cc5)cc4)cc3C2=O)cc1` (repeat unit) gave a glass transition temperature of 324.00 °C. `*O[Si](*)(C)CCCCCCCCCCC(=O)Oc1ccc(-c2ccc(OC(=O)c3ccc(OCC)cc3)cc2)cc1` (repeat unit) gave a glass transition temperature of 103.40 °C. In the case of `*Oc1ccc(NC(=O)c2cc(NC(=O)CCCN3C(=O)c4ccccc4C3=O)cc(C(=O)Nc3ccc(*)cc3)c2)cc1` (repeat unit), the glass transition temperature is reported as 225.00 °C. `*Oc1ccc(S(=O)(=O)c2ccc(Oc3ccc4c(=O)n5c6cc(-c7ccc8c(c7)nc7c9ccc(*)c%10cccc(c(=O)n87)c%109)ccc6nc5c5cccc3c45)cc2)cc1` (repeat unit) gave a glass transition temperature of 415.00 °C. Molecule `*Cc1cc(C23CC4CC(CC(C4)C2)C3)cc(CN(*)c2ccccc2)c1O` (repeat unit) has a glass transition temperature of 109.40 °C. `*Cc1ccc(CO*)cc1` (repeat unit) showed a glass transition temperature of 217.00 °C. `*Oc1ccc(C(=O)OC(C)COC(C)COC(C)COC(=O)c2ccc(OC(=O)c3ccc(C(*)=O)cc3)cc2)cc1` (repeat unit) showed a glass transition temperature of 36.00 °C. `*CCCCCCCCCn1c2ccccc2c2cc(/C=C(\C#N)C(=O)OCCCCCCOC(=O)/C(C#N)=C/c3ccc4c(c3)c3ccccc3n4*)ccc21` (repeat unit) gave a glass transition temperature of 96.40 °C. With `*CCCCCCCCNC(=O)c1ccc(C(=O)N*)c(Oc2ccccc2)c1` (repeat unit) the glass transition temperature was 96.00 °C. With `*C(=O)c1cc(C(=O)c2ccc3c(c2)C(=O)N(c2ccc(Oc4ccc(S(=O)(=O)c5ccc(Oc6ccc(N7C(=O)c8ccc(*)cc8C7=O)cc6)cc5)cc4)cc2)C3=O)cc(C(C)(C)C)c1` (repeat unit) the glass transition temperature was 254.50 °C. `*c1ccc(C(c2ccc(-c3cc(-c4ccccc4)c4cc(Oc5ccc6nc(*)cc(-c7ccccc7)c6c5)ccc4n3)cc2)(C(F)(F)F)C(F)(F)F)cc1` (repeat unit) showed a glass transition temperature of 260.00 °C. Molecule `*N=P(*)(CC1COCCOCCOCCO1)OCC1COCCOCCOCCO1` (repeat unit) has a glass transition temperature of -40.00 °C. `*Oc1ccc(OC(=O)c2ccc(OCCCCCCCCCCOc3ccc(C(*)=O)cc3)cc2)cc1S(=O)(=O)c1ccccc1` (repeat unit) gave a glass transition temperature of 88.00 °C. With `*C(=O)c1ccc(N(*)C)cc1` (repeat unit) the glass transition temperature was 197.00 °C. With `*CCOCCOCCOc1ccc(C(=O)Nc2cc(NC(=O)c3ccc(O*)cc3)cc(-c3nc4ccccc4[nH]3)c2)cc1` (repeat unit) the glass transition temperature was 165.00 °C. With `*Oc1ccc(OC(=O)c2ccc(C(*)=O)cc2Sc2ccc(C)cc2)cc1` (repeat unit) the glass transition temperature was 134.00 °C. With `*c1ccc(-c2ccc(-n3c(=O)c4c(C(F)(F)F)c5c(=O)n(*)c(=O)c5c(C(F)(F)F)c4c3=O)cc2C)c(C)c1` (repeat unit) the glass transition temperature was 385.00 °C. With `*CCCCc1ccc(-c2c(-c3ccccc3)cc(-c3cccc(-c4cc(-c5ccccc5)c(-c5ccc(*)cc5)c(-c5ccccc5)c4-c4ccccc4)c3)c(-c3ccccc3)c2-c2ccccc2)cc1` (repeat unit) the glass transition temperature was 180.00 °C. Work on `*c1cccc(Oc2cccc(Oc3cccc(N4C(=O)c5ccc(Oc6ccc(Sc7ccc(Oc8ccc9c(c8)C(=O)N(*)C9=O)cc7)cc6)cc5C4=O)c3)c2)c1` (repeat unit) yielded a glass transition temperature of 190.50 °C. `*C(=O)c1ccc2c(c1)C(=O)N(CC1(C)CC(N3C(=O)c4ccc(*)cc4C3=O)CC(C)(C)C1)C2=O` (repeat unit) showed a glass transition temperature of 275.00 °C. `*O[Si](C)(C)O[Si](C)(C)O[Si](C)(C)O[Si](C)(C)O[Si](C)(C)O[Si](C)(C)Oc1c(*)c2ccccc2c2ccccc12` (repeat unit) showed a glass transition temperature of -68.00 °C. `*C[Si](*)(C)c1ccccc1` (repeat unit) showed a glass transition temperature of 28.00 °C. `*CC(*)c1ccc(Br)cc1` (repeat unit) [Poly(4-bromostyrene)] showed a glass transition temperature of 140.4 ± 5.4 °C. `*Sc1ccc(Cc2ccc(SC(*)=O)cc2)cc1` (repeat unit) showed a glass transition temperature of 117.00 °C. Work on `*CC(*)OC=O` (repeat unit) [Poly(vinyl formate)] yielded a glass transition temperature of 32.4 ± 3.6 °C. For `*CCCCCCCCCCCCNC(=O)CCc1ccc(CCC(=O)N*)cc1` (repeat unit), the glass transition temperature was 85.00 °C. For `*Oc1ccc(CC(NC(=O)Cc2ccc(OC(=O)CC(C)CCC(*)=O)cc2)C(=O)OCCCCCC)cc1` (repeat unit), the glass transition temperature was 38.00 °C. Work on `*OC(=O)c1ccc(C(F)(F)C(F)(F)C(F)(F)c2ccc(C(*)=O)cc2)cc1` (repeat unit) yielded a glass transition temperature of 98.00 °C. `*c1cccc(S(=O)(=O)NCCCNS(*)(=O)=O)c1` (repeat unit) showed a glass transition temperature of 92.00 °C. For `*C#C/C(COS(=O)(=O)c1ccc(C)cc1)=C(/*)COS(=O)(=O)c1ccc(C)cc1` (repeat unit), the glass transition temperature was -73.00 °C. Work on `*c1ccc(Oc2ccc(Oc3ccc(Oc4ccc(N5C(=O)c6ccc(-c7ccc8c(c7)C(=O)N(*)C8=O)cc6C5=O)cc4)cc3)cc2)cc1` (repeat unit) yielded a glass transition temperature of 228.51 °C. With `*CCCCCCN1C(=O)c2ccc(-c3ccc(-c4ccc5c(c4)C(=O)N(*)C5=O)cc3)cc2C1=O` (repeat unit) the glass transition temperature was 141.00 °C. In the case of `*Oc1ccc(C2(c3ccc(OC(*)=O)c(C)c3)CC3CC2C2CCCC32)cc1C` (repeat unit), the glass transition temperature is reported as 217.00 °C. For `*Oc1ccc(-c2ccc(OC(=O)c3ccc(C(*)=O)cc3Sc3ccc4ccccc4c3)cc2)cc1` (repeat unit), the glass transition temperature was 141.00 °C. `*c1cccc(-n2nc(-c3ccccc3)c3cc(Oc4ccc(C(C)(C)c5ccc(Oc6ccc7c(-c8ccccc8)nn(*)c(=O)c7c6)cc5)cc4)ccc3c2=O)c1C#N` (repeat unit) showed a glass transition temperature of 200.00 °C. With `*C(=O)Nc1ccccc1NC(=O)c1ccc(N2C(=O)c3ccc(*)cc3C2=O)cc1` (repeat unit) the glass transition temperature was 215.00 °C. Work on `*CC(*)(CF)C(=O)OCC` (repeat unit) yielded a glass transition temperature of 43.00 °C. `*CCCCCCCCCCCCOC(=O)Nc1ccc(Cc2ccc(NC(=O)O*)cc2)cc1` (repeat unit) gave a glass transition temperature of 43.00 °C. Work on `*CC(*)C(=O)OCC(F)(F)C(F)(F)OC(F)(F)C(F)(F)F` (repeat unit) yielded a glass transition temperature of -49.00 °C. `*CC(C)S*` (repeat unit) [Poly(propylene sulfide) ] gave a glass transition temperature of -47 ± 2.7 °C. Work on `*c1ccc(-c2ccc(-c3cc(-c4ccccc4)c4cc(C5(c6ccc7nc(*)cc(-c8ccccc8)c7c6)c6ccccc6C(=O)c6ccccc65)ccc4n3)cc2)cc1` (repeat unit) yielded a glass transition temperature of 350.00 °C. For `*c1ccc(C(=O)NCCCCCCNC(=O)c2ccc(-c3nc4ccccc4nc3*)cc2)cc1` (repeat unit), the glass transition temperature was 201.00 °C. With `*c1ccc(Oc2ccc(S(=O)(=O)c3ccc(Oc4ccc(-c5cc(*)[nH]n5)cc4)cc3)cc2)cc1` (repeat unit) the glass transition temperature was 260.00 °C.
